Reference: patent publication EP1066315B1 (University of Dundee, priority 1998, dated 2008)
Entries after “also recorded” stand apart in the source; their conditions may differ. Each block holds one compound with its values, some of them ahead of it. Residues, ends and D or L forms follow the SMILES beside them. *: point of attachment. Fmoc = O=C(OCC1c2ccccc2-c2ccccc21)*; Cbz = O=C(OCc1ccccc1)*; CHN2 = [N-]=[N+]=C*

How the values were obtained:
[1] = tested on: purified AEP (legumain from pig kidney); test: Digestion of TTCF with purified AEP in the presence of tetrapeptides; type: biochemical; settings: 0.2 mg/ml peptide; Fig 3a
Method: The invention will now be described by reference to the following Examples and Figures wherein • Figure 1: Processing of TTCF by a leupeptin-insensitive cysteine endopeptidase activity. (a) TTCF was digested in vitro in the presence of disrupted lysosomes (1-2 µg) in the presence or absence of iodoacetamide (1 mM), leupeptin, E64 or pepstatin (each at 0.1 mg/ml). Digestions were in 0.1 M NH4 acetate at pH 4.5 or Na2HPO4, pH 6.0 or 7.0. After 4 hours at 37°C, the reactions were separated by Tris-tricine SDS-PAGE and stained with Coomassie Blue. (b) Cleavage sites: TTCF digestion products were separated by SDS PAGE and electrophoretically transferred to nitrocellulose membrane. Individual fragments numbered 1-6 were subjected to 5 cycles of Edman degradation. N-terminal sequence obtained is shown in bold following upstream residues from TTCF (tetanus toxin numbering). The N-terminal sequence of His-tagged TTCF was obtained for fragments 1 and 3. (c) Residues Asn 1184 and Glu 1184 in TTCF were mutated to alanine (see Methods) and digestions performed as before. The mutation abolishes cleavage at the mutated site but not at the first site (doublet at 47 kD). In this experiment cleavage of the third site was minimal. • Figure 2: TTCF is processed by an asparaginyl endopeptidase. (a) Chromatography of the TTCF processing activity on Mono-S resin. Fractions eluted by NaCl gradient were incubated with the substrates Z-Ala-Ala-Asn-NHMec or Z-Phe-Arg-NHMec in the presence or absence of E64 (trans-epoxysuccinyl-L-leucylamido-(4-guanidino)butane). […] (b) Fractions as above were incubated with 10 µg TTCF in the presence or absence of E64 for 4 hours at 37°C prior to SDS-PAGE analysis. (c) Each fraction was analysed by SDS-PAGE and Western blotting. Electrophoretically transferred material was probed with an affinity purified antiserum raised against the peptide KGIGSGKVLKSGPQC from human legumain^1. • Figure 3: Peptide inhibitors of AEP block asparaginyl endopeptidase activity and TTCF processing in vitro and in vivo. […] Release of 7-amino-4-methyl coumarin was measured after 10, 20 or 30 minutes. […] At different times the cells were washed, fixed in 0.05 % glutaraldehyde and antigen presentation measured using proliferation of different autologous TTCF-specific T cell clones. c, AEP pre-processing of TTCF speeds antigen presentation. […] Presentation was measured after 60 minutes of antigen pulsing using EBV B cells.
We decided to test the possibility that high concentrations of asparagine containing peptides might act as competitive inhibitors. […] To establish that inhibition of AEP was specific, we measured the hydrolysis of different synthetic peptide substrates in the presence and absence of these tetrapeptides.

[2] = tested on: EBV-transformed B cells / autologous TTCF-specific T cell clones; test: TTCF antigen presentation by EBV-transformed B cells, read out as proliferation of autologous T cell clones; type: cell-based, human; settings: EBV-B cells from donor, 2 mg/ml peptide; Fig 9b
Method: The invention will now be described by reference to the following Examples and Figures wherein • Figure 1: Processing of TTCF by a leupeptin-insensitive cysteine endopeptidase activity. (a) TTCF was digested in vitro in the presence of disrupted lysosomes (1-2 µg) in the presence or absence of iodoacetamide (1 mM), leupeptin, E64 or pepstatin (each at 0.1 mg/ml). Digestions were in 0.1 M NH4 acetate at pH 4.5 or Na2HPO4, pH 6.0 or 7.0. After 4 hours at 37°C, the reactions were separated by Tris-tricine SDS-PAGE and stained with Coomassie Blue. (b) Cleavage sites: TTCF digestion products were separated by SDS PAGE and electrophoretically transferred to nitrocellulose membrane. Individual fragments numbered 1-6 were subjected to 5 cycles of Edman degradation. N-terminal sequence obtained is shown in bold following upstream residues from TTCF (tetanus toxin numbering). The N-terminal sequence of His-tagged TTCF was obtained for fragments 1 and 3. (c) Residues Asn 1184 and Glu 1184 in TTCF were mutated to alanine (see Methods) and digestions performed as before. The mutation abolishes cleavage at the mutated site but not at the first site (doublet at 47 kD). In this experiment cleavage of the third site was minimal. • Figure 2: TTCF is processed by an asparaginyl endopeptidase. (a) Chromatography of the TTCF processing activity on Mono-S resin. Fractions eluted by NaCl gradient were incubated with the substrates Z-Ala-Ala-Asn-NHMec or Z-Phe-Arg-NHMec in the presence or absence of E64 (trans-epoxysuccinyl-L-leucylamido-(4-guanidino)butane). […] (c) Each fraction was analysed by SDS-PAGE and Western blotting. […] Release of 7-amino-4-methyl coumarin was measured after 10, 20 or 30 minutes. […] At different times the cells were washed, fixed in 0.05 % glutaraldehyde and antigen presentation measured using proliferation of different autologous TTCF-specific T cell clones. c, AEP pre-processing of TTCF speeds antigen presentation. […] Presentation was measured after 60 minutes of antigen pulsing using EBV B cells. […]

[3] = tested on: peripheral blood mononuclear cells (PBMC) / autologous TTCF specific T cell clones; test: TTCF antigen presentation by PBMC, read out as proliferation of autologous T cell clones; type: cell-based, human; settings: PBMC, 1 mg/ml peptide, between 30 and 60 minutes of antigen pulsing; Fig 9a
Method: (§1) The invention will now be described by reference to the following Examples and Figures wherein • Figure 1: Processing of TTCF by a leupeptin-insensitive cysteine endopeptidase activity. (a) TTCF was digested in vitro in the presence of disrupted lysosomes (1-2 µg) in the presence or absence of iodoacetamide (1 mM), leupeptin, E64 or pepstatin (each at 0.1 mg/ml). Digestions were in 0.1 M NH4 acetate at pH 4.5 or Na2HPO4, pH 6.0 or 7.0. After 4 hours at 37°C, the reactions were separated by Tris-tricine SDS-PAGE and stained with Coomassie Blue. (b) Cleavage sites: TTCF digestion products were separated by SDS PAGE and electrophoretically transferred to nitrocellulose membrane. Individual fragments numbered 1-6 were subjected to 5 cycles of Edman degradation. N-terminal sequence obtained is shown in bold following upstream residues from TTCF (tetanus toxin numbering). The N-terminal sequence of His-tagged TTCF was obtained for fragments 1 and 3. (c) Residues Asn 1184 and Glu 1184 in TTCF were mutated to alanine (see Methods) and digestions performed as before. The mutation abolishes cleavage at the mutated site but not at the first site (doublet at 47 kD). In this experiment cleavage of the third site was minimal. • Figure 2: TTCF is processed by an asparaginyl endopeptidase. (a) Chromatography of the TTCF processing activity on Mono-S resin. Fractions eluted by NaCl gradient were incubated with the substrates Z-Ala-Ala-Asn-NHMec or Z-Phe-Arg-NHMec in the presence or absence of E64 (trans-epoxysuccinyl-L-leucylamido-(4-guanidino)butane). […] (b) Fractions as above were incubated with 10 µg TTCF in the presence or absence of E64 for 4 hours at 37°C prior to SDS-PAGE analysis. (c) Each fraction was analysed by SDS-PAGE and Western blotting. Electrophoretically transferred material was probed with an affinity purified antiserum raised against the peptide KGIGSGKVLKSGPQC from human legumain^1. • Figure 3: Peptide inhibitors of AEP block asparaginyl endopeptidase activity and TTCF processing in vitro and in vivo. (a) TTCF was digested with purified AEP (legumain from pig kidney) in the presence or absence of 0.2 mg/ml of the peptides indicated. […] (b) Purified AEP or a crude lysosomal protease mixture were incubated with Z-Ala-Ala-Asn-NHMec, Z-Phe-Arg-NHMec (cathepsins L&B) or Z-Val-Val-Ala NHMec (cathepsin S) in the presence of increasing concentrations of AENK or AEQK. Release of 7-amino-4-methyl coumarin was measured after 10, 20 or 30 minutes. […] At different times the cells were washed, fixed in 0.05 % glutaraldehyde and co-cultured with autologous TTCF specific T cell clones. […] Proteins obtained from commercial sources, as described in the literature or custom peptides were digested with purified pig kidney legumain at pH 5.5 in the presence of 1 mM DTT. […] When present peptide was maintained during antigen pulsing at 1 mg/ml (a) or 2 mg/ml (b). At different times the cells were washed, fixed in 0.05 % glutaraldehyde and antigen presentation measured using proliferation of different autologous TTCF-specific T cell clones. c, AEP pre-processing of TTCF speeds antigen presentation. […] Presentation was measured after 60 minutes of antigen pulsing using EBV B cells.
If AEP plays a role in TTCF processing in antigen presenting cells then sufficiently high levels of the competing AENK peptide might be expected to interfere with normal class II MHC loading of TTCF epitopes. Following a 15 minute preincubation with or without tetrapeptides, freshly isolated peripheral blood mononuclear cells (PBMC) were incubated with TTCF antigen in the continued presence or absence of the peptides. At different times, the cells were washed, fixed and then co-cultured with different autologous T cell clones to assess expression of different peptide/MHC complexes. […] At later times there was some recovery of presentation of these epitopes as expected for a competitive inhibitor. […]

[4] = tested on: Asparagine endopeptidase (AEP); test: AEP
[5] = biological target: T1, disrupted lysosomes isolated from the human B cell line EDR (TTCF processing activity) (Homo sapiens, UniProt Q99538); test: Digestion of TTCF by disrupted B cell lysosomes, SDS-PAGE readout; type: biochemical
T1 construct: disrupted lysosomes isolated from the human B cell line EDR; endogenous in cells; host or cells: human B cell line EDR, Percoll-gradient lysosomal fraction, disrupted
T1 sequence (Q99538 26-323 limits assumed): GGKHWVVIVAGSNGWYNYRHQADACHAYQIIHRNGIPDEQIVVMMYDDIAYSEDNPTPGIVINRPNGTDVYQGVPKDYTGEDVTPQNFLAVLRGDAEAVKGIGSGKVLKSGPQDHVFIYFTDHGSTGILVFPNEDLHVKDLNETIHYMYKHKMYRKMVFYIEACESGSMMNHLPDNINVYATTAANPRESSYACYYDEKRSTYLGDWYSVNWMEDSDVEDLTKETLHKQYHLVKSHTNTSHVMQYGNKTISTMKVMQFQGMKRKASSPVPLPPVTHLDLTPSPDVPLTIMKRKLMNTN
Method: as §1
[…]. […] Nor could we reproduce the lysosomal TTCF digestion pattern or indeed generate any of these fragments using purified cathepsins L, S, B, D or E , all of which have been implicated in the class II MHC antigen processing pathway (reviewed in refs 5 & 6).
TTCF processing activity. Lysosomal fractions from the human B cell line EDR were prepared on 27 % Percoll density gradients as previously described^8 using ^125I-labelled transferrin (internalised for 30 minutes at 37°C) and β-hexosaminidase to identify endosomal/plasma membrane and lysosomal fractions respectively. The peak of lysosomes was collected by centrifugation at 40,000 g for 1 hour, removed from the underlying Percoll pellet, collected again at 50,000 g for 1 hour and stored frozen. […]

[6] = B cell lysosomal fractions (crude lysosomal protease mixture); settings: human, up to 30 minutes
[7] = crude lysosomal protease mixture (B cell lysosomal fractions); settings: human, up to 30 minutes

Compound: C[C@H](NC(=O)OCC1c2ccccc2-c2ccccc21)C(=O)N[C@@H](CCC(=O)O)C(=O)N[C@@H](CCC(N)=O)C(=O)N[C@@H](CCCCN)C(N)=O [AEQK] (Fmoc-AEQK-NH2)
inhibition of processing of TTCF by AEP [1]: did not inhibit
antigen presentation by EBV-B cells [2]: virtually no effect
presentation to most clones (eg AK 5, 90 & 6) at early times [3]: detectable

cleaved bond [4]: N630-V631; also recorded: N637-F638
Compound: QQQHLFGSNVTDCSGNFCLFRKKK

Compound: [N-]=[N+]=CC(=O)[C@H](Cc1ccccc1)NC(=O)[C@H](Cc1ccccc1)NC(=O)OCc1ccccc1 [Z-Phe-Phe-CHN2] (Cbz-Phe-Phe-CHN2)
sensitivity of lysosomal TTCF digestion activity to inhibitor ([5]; high concentrations, data not shown): sensitive

Compound: NCCCC[C@H](NC(=O)OCC1c2ccccc2-c2ccccc21)C(=O)N[C@@H](CC(N)=O)C(=O)N[C@@H](CC(N)=O)C(=O)N[C@@H](CCC(=O)O)C(N)=O [KNNE, Lys-Asn-Asn-Glu-NH] (Fmoc-KNNE-NH2)
inhibition of processing of TTCF by AEP [1]: also inhibited but was less effective

cleaved bond [6]: Asn-NHMec
Compound: Z-Val-Ala-Asn-NHMec

cleaved bond [7]: Arg-NHMec
cleaved bond [6]: Arg-NHMec
Compound: Z-Phe-Arg-NHMec

Compound: CC(=O)N[C@@H](CC(C)C)C(=O)N[C@@H](CC(C)C)C(=O)N[C@H](C=O)CCCNC(=N)N [leupeptin, acetyl-leucyl-leucyl-arginal]
inhibition of lysosomal digestion of TTCF ([5]; inhibitor at 0.1 mg/ml, pH 4.5, 4 hours at 37°C, Fig 1a): could not inhibit; also recorded: completely resistant

cleaved bond [4]: N637-F638
Compound: QQQHLFGSN(CHO)VTDCSGNFCLFR
not cleaved [4]: fragments VTDCSGNFCLFR and QQQHLFGSN(CHO) not observed
